Measured values from publication PMC5007443, “TNIK inhibition abrogates colorectal cancer stemness” (Nature Communications, 2016).

Legend:
KDR = KDR (Homo sapiens, UniProt P35968); assay: Kinase selectivity profiling, Kinase insert domain receptor; format: biochemical; settings: read-out: Percentage inhibition of KDR
Description: (§1) The selectivity of compounds against a panel of 50 human protein kinases was assessed using a non-radiometric assay.

MET = MET (Homo sapiens, UniProt P08581); assay: Kinase selectivity profiling, Hepatocyte growth factor receptor; format: biochemical; settings: read-out: Percentage inhibition of MET
Description: as §1

PYK2 = PYK2 (Homo sapiens, UniProt Q14289); assay: Kinase selectivity profiling, Proline-rich tyrosine kinase 2; format: biochemical; settings: read-out: Percentage inhibition of PYK2
Description: as §1

SYK = SYK (Homo sapiens, UniProt P43405); assay: Kinase selectivity profiling, Spleen tyrosine kinase; format: biochemical; settings: read-out: Percentage inhibition of SYK
Description: as §1

TYRO3 = TYRO3 (Homo sapiens, UniProt Q06418); assay: Kinase selectivity profiling, Tyro3 receptor tyrosine kinase; format: biochemical; settings: read-out: Percentage inhibition of TYRO3
Description: as §1

CDK2/CycA2 = CDK2/CycA2 (Homo sapiens, UniProt P24941); assay: Kinase selectivity profiling, Cyclin-dependent kinase 2/cyclin A2; format: biochemical; settings: 0.1 µM inhibitor, ATP at Km; read-out: Percentage inhibition of CDK2/CycA2
Description: as §1

CK1ε = CK1ε (Homo sapiens, UniProt P49674); assay: Kinase selectivity profiling, Casein kinase 1ε; format: biochemical; settings: read-out: Percentage inhibition of CK1ε
Description: as §1

JNK2 = JNK2 (Homo sapiens, UniProt P45984); assay: Kinase selectivity profiling, c-Jun kinase 2; format: biochemical; settings: read-out: Percentage inhibition of JNK2
Description: as §1

p38α = p38α (Homo sapiens, UniProt Q16539); assay: Kinase selectivity profiling, Mitogen-activated protein kinase 14; format: biochemical; settings: read-out: Percentage inhibition of p38α
Description: as §1

PIM1 = PIM1 (Homo sapiens, UniProt P11309); assay: Kinase selectivity profiling, Pim-1 oncogene; format: biochemical; settings: read-out: Percentage inhibition of PIM1
Description: as §1

PKCα = PKCα (Homo sapiens, UniProt P17252); assay: Kinase selectivity profiling, Protein kinase C-α; format: biochemical; settings: read-out: Percentage inhibition of PKCα
Description: as §1

SGK = SGK (Homo sapiens, UniProt O00141); assay: Kinase selectivity profiling, Serum/glucocorticoid regulated kinase; format: biochemical; settings: read-out: Percentage inhibition of SGK
Description: as §1

TSSK1 = TSSK1 (Homo sapiens, UniProt Q9BXA7); assay: Kinase selectivity profiling, Testis-specific serine kinase 1; format: biochemical; settings: read-out: Percentage inhibition of TSSK1
Description: as §1

HCT116 cells [1] = assay: Cell cycle analysis by flow cytometry; format: cell-based, human; settings: HCT116, 3 μM
Description: Cells were dissociated with Accutase, fixed with 70% EtOH at −20 °C, stained with Guava Cell Cycle reagent (Merck-Millipore) in accordance with the manufacturer's instructions, and analysed using a Guava easy Cyte HT flow cytometer (Merck-Millipore). Cell doublets were eliminated by doublet discrimination gating. Data were analyzed using FLOWJO version 10 software (Treestar; Fig. 3e). Experiments were performed in triplicate and repeated at least two times.

HCT116 cells [2] = assay: Limiting dilution analysis of sphere formation, HCT116; format: cell-based, human
Description: (§2) One million HCT116 and DLD-1 cells were seeded onto 60-mm plates and treated with vehicle (DMSO) or compounds (0.1, 0.3 or 1.0 μM) for either 3 or 4 days. After washing off the compounds, the cells were dissociated to single cells in serum-free DMEM/F12 medium (Thermo Fisher Scientific) containing B27 (Thermo Fisher Scientific), 20 ng ml^−1 epidermal growth factor (EGF; Thermo Fisher Scientific), 10 ng ml^−1 basic fibroblast factor (bFGF; Thermo Fisher Scientific), 5 μg ml^−1 insulin (Thermo Fisher Scientific), 0.4% bovine serum albumin (Sigma-Aldrich) and 2 mM L-glutamine (Thermo Fisher Scientific). One hundred, 10 or 1 viable (determined by trypan-blue dye exclusion) cells were seeded into each well of a 96-well U-bottom PrimeSurface plate (Sumitomo Bakelite). Ten days later, the number of wells showing sphere formation was counted. The frequency of sphere-forming cells was calculated using ELDA software (http://bioinf.wehi.edu.au/software/elda/index.html) provided by the Walter and Eliza Hall Institute (Fig. 5c; Supplementary Table 2). Experiments were performed in triplicate and repeated at least two times.

DLD-1 cells = assay: Limiting dilution analysis of sphere formation, DLD-1; format: cell-based, human
Description: as §2

[3] = system: patient-derived colorectal cancer spheroids #6; assay: ATP production of patient-derived spheroid #6; format: cell-based; settings: Homo sapiens, 72 h; spheroid #6, 3 days
Description: Cells were seeded at a density of 3,000 cells per well in 96-well plates. Twenty-four hours after seeding, the cells were exposed to serially diluted compounds (0.003, 0.01, 0.03, 0.1, 0.3, 1, 3 and 10 μM) and incubated for 72 h (Fig. 3a). Patient-derived colorectal cancer spheroids were dissociated into single cells with Accutase (Nacalai Tesque) and seeded at a density of 3,000 cells per well into Ultra-Low attachment multiwall 96-well plates (Corning; Fig. 6d). ATP was measured with a CellTiter-Glo Luminescent Cell Viability Assay kit (Promega). Experiments were performed in triplicate and repeated at least two times.

Sequence of SGK (O00141 whole entry): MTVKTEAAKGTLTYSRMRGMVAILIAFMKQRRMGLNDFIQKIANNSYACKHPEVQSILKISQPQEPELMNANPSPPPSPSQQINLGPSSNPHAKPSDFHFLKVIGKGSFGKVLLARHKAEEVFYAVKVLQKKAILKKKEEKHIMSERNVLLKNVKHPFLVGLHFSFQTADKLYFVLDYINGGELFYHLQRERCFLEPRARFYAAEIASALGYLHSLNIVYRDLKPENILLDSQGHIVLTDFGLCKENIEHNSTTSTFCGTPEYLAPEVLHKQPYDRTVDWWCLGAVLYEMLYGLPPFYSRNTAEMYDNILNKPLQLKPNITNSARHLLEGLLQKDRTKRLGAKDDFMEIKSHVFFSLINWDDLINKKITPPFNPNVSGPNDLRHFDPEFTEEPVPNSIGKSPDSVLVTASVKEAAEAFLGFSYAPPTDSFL
Sequence of JNK2 (P45984 whole entry): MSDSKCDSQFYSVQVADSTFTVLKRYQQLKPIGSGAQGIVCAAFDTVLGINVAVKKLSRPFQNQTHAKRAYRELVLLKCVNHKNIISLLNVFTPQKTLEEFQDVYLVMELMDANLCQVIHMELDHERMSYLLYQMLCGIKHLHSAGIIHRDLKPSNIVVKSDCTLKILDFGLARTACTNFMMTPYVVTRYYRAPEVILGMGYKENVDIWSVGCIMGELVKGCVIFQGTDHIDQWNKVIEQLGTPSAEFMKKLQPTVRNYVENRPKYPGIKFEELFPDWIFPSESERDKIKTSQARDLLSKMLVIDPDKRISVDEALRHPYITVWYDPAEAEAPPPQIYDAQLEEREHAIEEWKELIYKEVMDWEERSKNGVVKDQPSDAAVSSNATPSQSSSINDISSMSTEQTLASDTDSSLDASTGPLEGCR
Sequence of p38α (Q16539 whole entry): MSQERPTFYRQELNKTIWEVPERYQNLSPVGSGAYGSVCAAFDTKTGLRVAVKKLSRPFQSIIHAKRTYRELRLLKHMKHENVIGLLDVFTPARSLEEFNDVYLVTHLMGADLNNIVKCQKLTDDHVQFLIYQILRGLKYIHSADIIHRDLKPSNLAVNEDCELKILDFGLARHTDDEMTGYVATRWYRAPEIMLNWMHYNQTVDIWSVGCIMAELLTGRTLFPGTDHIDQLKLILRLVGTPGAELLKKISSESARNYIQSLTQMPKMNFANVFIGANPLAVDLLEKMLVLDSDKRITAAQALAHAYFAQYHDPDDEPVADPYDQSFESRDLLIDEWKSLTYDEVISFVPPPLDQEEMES
Sequence of KDR (P35968 20-1356): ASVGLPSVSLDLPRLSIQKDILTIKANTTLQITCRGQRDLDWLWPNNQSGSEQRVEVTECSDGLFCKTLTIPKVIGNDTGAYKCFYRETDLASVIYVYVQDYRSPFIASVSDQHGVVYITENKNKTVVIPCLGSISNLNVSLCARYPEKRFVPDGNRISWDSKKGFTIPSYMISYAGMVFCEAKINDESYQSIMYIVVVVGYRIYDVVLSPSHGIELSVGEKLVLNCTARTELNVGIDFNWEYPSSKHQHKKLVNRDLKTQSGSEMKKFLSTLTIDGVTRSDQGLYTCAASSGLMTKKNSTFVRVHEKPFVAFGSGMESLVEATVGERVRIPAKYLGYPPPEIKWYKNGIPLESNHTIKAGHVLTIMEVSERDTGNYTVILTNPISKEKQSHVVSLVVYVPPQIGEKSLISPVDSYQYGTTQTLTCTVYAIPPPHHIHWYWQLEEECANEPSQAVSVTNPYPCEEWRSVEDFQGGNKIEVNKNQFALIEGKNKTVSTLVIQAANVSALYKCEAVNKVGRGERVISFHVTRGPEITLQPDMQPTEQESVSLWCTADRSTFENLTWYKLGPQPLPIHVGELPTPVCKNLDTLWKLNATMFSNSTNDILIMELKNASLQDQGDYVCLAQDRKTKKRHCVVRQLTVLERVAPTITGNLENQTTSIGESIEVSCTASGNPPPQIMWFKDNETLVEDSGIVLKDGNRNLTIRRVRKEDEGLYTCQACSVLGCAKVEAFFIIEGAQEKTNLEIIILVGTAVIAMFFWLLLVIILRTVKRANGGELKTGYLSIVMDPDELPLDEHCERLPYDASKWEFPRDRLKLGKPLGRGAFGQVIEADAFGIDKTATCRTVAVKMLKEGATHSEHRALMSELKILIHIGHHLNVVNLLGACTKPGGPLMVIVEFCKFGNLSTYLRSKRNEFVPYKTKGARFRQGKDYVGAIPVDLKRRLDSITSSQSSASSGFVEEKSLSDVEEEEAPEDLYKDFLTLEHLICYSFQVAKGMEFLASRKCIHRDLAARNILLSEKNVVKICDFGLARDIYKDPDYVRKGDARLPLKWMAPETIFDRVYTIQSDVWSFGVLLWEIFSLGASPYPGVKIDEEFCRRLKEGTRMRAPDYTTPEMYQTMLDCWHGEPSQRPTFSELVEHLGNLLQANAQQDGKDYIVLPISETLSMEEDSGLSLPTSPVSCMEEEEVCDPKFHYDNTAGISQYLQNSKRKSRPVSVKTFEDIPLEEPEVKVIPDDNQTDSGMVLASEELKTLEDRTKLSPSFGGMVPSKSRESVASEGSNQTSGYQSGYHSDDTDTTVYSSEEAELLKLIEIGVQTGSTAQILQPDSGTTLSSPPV
Sequence of TSSK1 (Q9BXA7 whole entry): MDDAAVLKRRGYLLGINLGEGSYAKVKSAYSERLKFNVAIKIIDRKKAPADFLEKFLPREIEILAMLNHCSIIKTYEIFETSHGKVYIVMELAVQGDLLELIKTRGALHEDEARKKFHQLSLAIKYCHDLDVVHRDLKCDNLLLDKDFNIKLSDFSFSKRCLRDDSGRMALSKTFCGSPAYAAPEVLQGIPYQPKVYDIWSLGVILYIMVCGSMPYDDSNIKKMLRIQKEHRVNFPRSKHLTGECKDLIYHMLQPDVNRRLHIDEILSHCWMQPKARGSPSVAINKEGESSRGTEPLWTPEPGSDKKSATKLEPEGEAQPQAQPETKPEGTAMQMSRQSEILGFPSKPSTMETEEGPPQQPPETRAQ
Sequence of TYRO3 (Q06418 41-890): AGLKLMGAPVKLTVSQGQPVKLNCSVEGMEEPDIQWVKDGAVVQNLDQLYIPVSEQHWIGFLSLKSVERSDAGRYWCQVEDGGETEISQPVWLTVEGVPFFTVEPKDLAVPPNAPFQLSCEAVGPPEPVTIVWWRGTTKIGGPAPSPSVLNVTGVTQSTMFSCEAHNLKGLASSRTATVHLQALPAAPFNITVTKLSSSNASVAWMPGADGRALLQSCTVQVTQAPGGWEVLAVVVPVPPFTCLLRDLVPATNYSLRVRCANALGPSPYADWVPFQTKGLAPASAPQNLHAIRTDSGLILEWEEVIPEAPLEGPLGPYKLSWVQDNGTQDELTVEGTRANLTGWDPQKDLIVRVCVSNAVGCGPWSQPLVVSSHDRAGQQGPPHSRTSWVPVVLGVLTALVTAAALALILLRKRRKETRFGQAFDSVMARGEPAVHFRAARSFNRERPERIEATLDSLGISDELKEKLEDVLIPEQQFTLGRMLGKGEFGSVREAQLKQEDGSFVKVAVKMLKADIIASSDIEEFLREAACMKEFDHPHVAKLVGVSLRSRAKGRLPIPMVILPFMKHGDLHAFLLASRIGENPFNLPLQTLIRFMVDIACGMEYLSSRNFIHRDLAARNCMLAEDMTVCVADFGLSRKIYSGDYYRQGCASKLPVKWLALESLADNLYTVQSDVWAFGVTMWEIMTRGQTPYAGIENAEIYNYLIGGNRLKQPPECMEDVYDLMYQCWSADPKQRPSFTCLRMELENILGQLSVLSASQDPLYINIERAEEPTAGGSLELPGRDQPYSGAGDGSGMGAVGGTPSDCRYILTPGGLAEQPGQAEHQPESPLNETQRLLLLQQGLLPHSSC
Sequence of PIM1 (P11309 whole entry): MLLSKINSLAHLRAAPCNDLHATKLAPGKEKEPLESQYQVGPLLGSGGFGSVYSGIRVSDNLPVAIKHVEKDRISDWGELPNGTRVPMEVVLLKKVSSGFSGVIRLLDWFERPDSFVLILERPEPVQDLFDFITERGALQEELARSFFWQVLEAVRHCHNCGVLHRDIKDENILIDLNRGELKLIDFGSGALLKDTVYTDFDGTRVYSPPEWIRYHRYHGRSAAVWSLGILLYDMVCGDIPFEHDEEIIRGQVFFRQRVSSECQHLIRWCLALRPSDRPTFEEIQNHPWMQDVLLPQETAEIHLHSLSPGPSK

SMILES: O[C@H]1CC[C@H](Oc2cccc3cnc(Nc4ccc5nc[nH]c5c4)nc23)CC1 [NCB-0970]
- inhibition at 0.1 µM (KDR): 43.7%
- inhibition at 0.1 µM (MET): 16.1%
- inhibition at 0.1 µM (PYK2): 23.6%
- inhibition at 0.1 µM (SYK): 14.2%
- inhibition at 0.1 µM (TYRO3): 23.9%
- inhibition at 0.1 µM (CDK2/CycA2): 93%
- inhibition at 0.1 µM (CK1ε): -1.6%
- inhibition at 0.1 µM (JNK2): -3%
- inhibition at 0.1 µM (p38α): -2.8%
- inhibition at 0.1 µM (PIM1): -5%
- inhibition at 0.1 µM (PKCα): 1.4%
- inhibition at 0.1 µM (SGK): 6.6%
- inhibition at 0.1 µM (TSSK1): 1.1%
- >4N (%) (HCT116 cells [1]; 24 h): 9.1%
- G0/G1 (%) (HCT116 cells [1]; 24 h): 24.5%
- G2/M (%) (HCT116 cells [1]; 24 h): 35.8%
- S (%) (HCT116 cells [1]; 24 h): 10.7%
- SubG1 (%) (HCT116 cells [1]; 24 h): 20%
- >4N (%) (HCT116 cells [1]; 48 h): 8.5%
- G0/G1 (%) (HCT116 cells [1]; 48 h): 21%
- G2/M (%) (HCT116 cells [1]; 48 h): 40.3%
- S (%) (HCT116 cells [1]; 48 h): 10.7%
- SubG1 (%) (HCT116 cells [1]; 48 h): 19.5%
- Sphere-containing wells/total wells (HCT116 cells [2]; HCT116, 3-day treatment, 0.1μM, 1 cell per well): 62/96
- Sphere-containing wells/total wells (HCT116 cells [2]; HCT116, 3-day treatment, 0.1μM, 10 cells per well): 96/96
- Sphere-containing wells/total wells (HCT116 cells [2]; HCT116, 3-day treatment, 0.1μM, 100 cells per well): 96/96
- Sphere-containing wells/total wells (HCT116 cells [2]; HCT116, 3-day treatment, 0.3μM, 1 cell per well): 65/96
- Sphere-containing wells/total wells (HCT116 cells [2]; HCT116, 3-day treatment, 0.3μM, 10 cells per well): 96/96
- Sphere-containing wells/total wells (HCT116 cells [2]; HCT116, 3-day treatment, 0.3μM, 100 cells per well): 96/96
- Sphere-containing wells/total wells (HCT116 cells [2]; HCT116, 3-day treatment, 1.0μM, 1 cell per well): 60/96
- Sphere-containing wells/total wells (HCT116 cells [2]; HCT116, 3-day treatment, 1.0μM, 10 cells per well): 96/96
- Sphere-containing wells/total wells (HCT116 cells [2]; HCT116, 3-day treatment, 1.0μM, 100 cells per well): 96/96
- Sphere-containing wells/total wells (HCT116 cells [2]; HCT116, 4-day treatment, 0.1μM, 1 cell per well): 59/96
- Sphere-containing wells/total wells (HCT116 cells [2]; HCT116, 4-day treatment, 0.1μM, 10 cells per well): 96/96
- Sphere-containing wells/total wells (HCT116 cells [2]; HCT116, 4-day treatment, 0.1μM, 100 cells per well): 96/96
- Sphere-containing wells/total wells (HCT116 cells [2]; HCT116, 4-day treatment, 0.3μM, 1 cell per well): 60/96
- Sphere-containing wells/total wells (HCT116 cells [2]; HCT116, 4-day treatment, 0.3μM, 10 cells per well): 96/96
- Sphere-containing wells/total wells (HCT116 cells [2]; HCT116, 4-day treatment, 0.3μM, 100 cells per well): 96/96
- Sphere-containing wells/total wells (HCT116 cells [2]; HCT116, 4-day treatment, 1.0μM, 1 cell per well): 56/96
- Sphere-containing wells/total wells (HCT116 cells [2]; HCT116, 4-day treatment, 1.0μM, 10 cells per well): 96/96
- Sphere-containing wells/total wells (HCT116 cells [2]; HCT116, 4-day treatment, 1.0μM, 100 cells per well): 96/96
- Sphere-containing wells/total wells (DLD-1 cells; DLD-1, 3-day treatment, 0.1 μM, 1 cell per well): 40/96
- Sphere-containing wells/total wells (DLD-1 cells; DLD-1, 3-day treatment, 0.1 μM, 10 cells per well): 96/96
- Sphere-containing wells/total wells (DLD-1 cells; DLD-1, 3-day treatment, 0.1 μM, 100 cells per well): 96/96
- Sphere-containing wells/total wells (DLD-1 cells; DLD-1, 3-day treatment, 0.3 μM, 1 cell per well): 51/96
- Sphere-containing wells/total wells (DLD-1 cells; DLD-1, 3-day treatment, 0.3 μM, 10 cells per well): 95/96
- Sphere-containing wells/total wells (DLD-1 cells; DLD-1, 3-day treatment, 0.3 μM, 100 cells per well): 96/96
- Sphere-containing wells/total wells (DLD-1 cells; DLD-1, 3-day treatment, 1.0 μM, 1 cell per well): 16/96
- Sphere-containing wells/total wells (DLD-1 cells; DLD-1, 3-day treatment, 1.0 μM, 10 cells per well): 75/96
- Sphere-containing wells/total wells (DLD-1 cells; DLD-1, 3-day treatment, 1.0 μM, 100 cells per well): 95/96
- Sphere-containing wells/total wells (DLD-1 cells; DLD-1, 4-day treatment, 0.1 μM, 1 cell per well): 55/96
- Sphere-containing wells/total wells (DLD-1 cells; DLD-1, 4-day treatment, 0.1 μM, 10 cells per well): 95/96
- Sphere-containing wells/total wells (DLD-1 cells; DLD-1, 4-day treatment, 0.1 μM, 100 cells per well): 96/96
- Sphere-containing wells/total wells (DLD-1 cells; DLD-1, 4-day treatment, 0.3 μM, 1 cell per well): 65/96
- Sphere-containing wells/total wells (DLD-1 cells; DLD-1, 4-day treatment, 0.3 μM, 10 cells per well): 94/96
- Sphere-containing wells/total wells (DLD-1 cells; DLD-1, 4-day treatment, 0.3 μM, 100 cells per well): 96/96
- Sphere-containing wells/total wells (DLD-1 cells; DLD-1, 4-day treatment, 1.0 μM, 1 cell per well): 45/96
- Sphere-containing wells/total wells (DLD-1 cells; DLD-1, 4-day treatment, 1.0 μM, 10 cells per well): 95/96
- Sphere-containing wells/total wells (DLD-1 cells; DLD-1, 4-day treatment, 1.0 μM, 100 cells per well): 96/96
- IC50 [3]: > 3000 nM
